Measured values from the CheMixHub drug solubility set.

Assay: xn = mol fraction of the nth substance listed, in the solute-free solvent

COC(=O)C1=C(C)NC(C)=C(C(=O)OCC(C)C)C1c1ccccc1[N+](=O)[O-] (stereo not drawn) + CCCO + O
solubility (g/100 g solution)
Conditions	278.15 K	283.15 K	288.15 K	293.15 K	298.15 K	303.15 K	308.15 K	313.15 K	318.15 K
x2 = 0.03225	0.131	0.174	0.219	0.268	0.346	0.422	0.526	0.638	0.78
x2 = 0.06974	0.532	0.647	0.806	0.96	1.16	1.37	1.62	1.92	2.23
x2 = 0.1139	0.997	1.25	1.49	1.81	2.21	2.6	3.12	3.63	4.27
x2 = 0.1666	1.41	1.75	2.12	2.56	3.1	3.6	4.37	5.07	5.97
x2 = 0.2307	1.69	2.05	2.52	3.08	3.7	4.42	5.22	6.16	7.24
x2 = 0.3103	2.02	2.49	2.99	3.59	4.3	5.12	6.03	7.01	8.15
x2 = 0.4117	2.29	2.82	3.37	4.11	4.82	5.73	6.73	7.81	9.08
x2 = 0.5454	2.47	3.06	3.68	4.45	5.28	6.23	7.23	8.39	9.79
x2 = 0.7297	2.47	3.01	3.69	4.38	5.22	6.28	7.42	8.7	10

O=[N+]([O-])c1cc[nH]n1 + CCCO + O
solubility (g/100 g solution)
Conditions	283.15 K	288.15 K	293.15 K	298.15 K	303.15 K	308.15 K	313.15 K	318.15 K	323.15 K
x2 = 0.03225	0.274	0.349	0.477	0.616	0.783	1.04	1.33	1.86	2.35
x2 = 0.06974	0.307	0.377	0.489	–	0.772	1.01	1.29	1.68	2.18
x2 = 0.1139	0.626	0.769	0.945	1.16	1.45	1.78	2.31	2.95	3.78
x2 = 0.1666	0.964	1.19	1.43	1.76	2.13	2.64	3.29	4.2	5.32
x2 = 0.2307	1.35	1.63	1.97	2.36	2.87	3.48	4.23	5.37	6.75
x2 = 0.3103	1.73	2.03	2.41	2.87	3.44	4.09	4.96	6.34	7.73
x2 = 0.4117	2.08	2.44	2.82	3.32	3.87	4.69	5.64	6.61	8.31
x2 = 0.5454	2.49	2.85	3.25	3.76	4.35	5.08	6.07	7.31	8.56
x2 = 0.7297	2.69	3.11	3.53	4	4.54	5.23	6.03	7.19	8.45

Cc1ccc(Nc2nccc(N(C)c3ccc4c(C)n(C)nc4c3)n2)cc1S(N)(=O)=O + CCO + CC#N
solubility (g/100 g solution)
Conditions	288.15 K	293.15 K	298.15 K	303.15 K	308.15 K	313.15 K	318.15 K	323.15 K	328.15 K
x2 = 0.1822	0.0124	0.029	0.0444	0.063	0.0838	0.104	0.125	0.149	0.177
x2 = 0.3727	0.026	0.0514	0.0739	0.101	0.129	0.157	0.187	0.22	0.258
x2 = 0.572	0.0528	0.0704	0.0887	0.11	0.133	0.16	0.189	0.221	0.256
x2 = 0.7809	0.0195	0.035	0.0514	0.0677	0.086	0.104	0.123	0.145	0.17

CC1(C)SC2C(NC(=O)C(NC(=O)N3CCNC3=O)c3ccccc3)C(=O)N2C1C(=O)O (stereo not drawn) + CCO + CC(C)O
solubility (g/100 g solution)
Conditions	278.15 K	283.15 K	288.15 K	293.15 K	298.15 K	303.15 K	308.15 K	313.15 K	318.15 K	323.15 K
x2 = 0.101	0.0833	0.0951	0.122	0.14	0.179	0.215	0.264	0.329	0.405	0.525
x2 = 0.2	0.0893	0.101	0.129	0.153	0.191	0.238	0.294	0.368	0.449	0.59
x2 = 0.301	0.119	0.135	0.164	0.208	0.248	0.287	0.369	0.426	0.528	0.687
x2 = 0.401	0.13	0.155	0.19	0.238	0.281	0.339	0.415	0.511	0.63	0.773
x2 = 0.5	0.154	0.182	0.223	0.279	0.345	0.399	0.484	0.636	0.78	0.991
x2 = 0.602	0.197	0.227	0.275	0.345	0.43	0.537	0.646	0.789	0.974	1.25
x2 = 0.703	0.268	0.302	0.368	0.464	0.539	0.677	0.857	1.05	1.29	1.61
x2 = 0.8	0.37	0.45	0.53	0.623	0.718	0.882	1.15	1.38	1.67	2.05
x2 = 0.9	0.54	0.618	0.748	0.927	1.11	1.35	1.69	2.01	2.39	2.92

CC(=O)Nc1ccc(OC(=O)c2ccccc2OC(C)=O)cc1 + CCO + O
solubility (g/100 g solution)
Conditions	278.15 K	283.15 K	288.15 K	293.15 K	298.15 K	303.15 K	308.15 K	313.15 K	318.15 K
x2 = 0.04165	0.00299	0.00439	0.00634	0.00913	0.0133	0.0185	0.0258	0.0351	0.0474
x2 = 0.08908	0.00839	0.0122	0.0171	0.0242	0.0339	0.0464	0.0629	0.0839	0.112
x2 = 0.1436	0.0202	0.0284	0.0401	0.0539	0.0744	0.0995	0.133	0.175	0.232
x2 = 0.2068	0.037	0.0513	0.0699	0.0951	0.127	0.166	0.221	0.283	0.366
x2 = 0.2812	0.0604	0.0826	0.111	0.146	0.19	0.252	0.322	0.409	0.514
x2 = 0.3698	0.082	0.109	0.148	0.197	0.255	0.33	0.424	0.542	0.69
x2 = 0.4772	0.108	0.144	0.193	0.254	0.327	0.418	0.536	0.684	0.863
x2 = 0.6101	0.134	0.178	0.236	0.306	0.396	0.513	0.661	0.829	1.04
x2 = 0.7788	0.157	0.206	0.273	0.356	0.458	0.586	0.741	0.936	1.18
